Assay [1] concerns the target T1, Nitric oxide synthase, inducible (Homo sapiens, UniProt P35228). Nature of the assay: Compound was evaluated for the Inhibition of induced isoform of Inducible nitric oxide synthase.
In assay [2] the target is Nitric oxide sythases; iNOS & nNOS (Homo sapiens) (UniProt P29475+P35228). As to the kind of experiment: Selectivity index determined by the ratio of IC50 of nNOS to the iNOS. Format: protein assay.
The target in assay [3] is Nitric oxide synthase (inducible and endothelial) (Homo sapiens) (UniProt P35228+P29474). Nature of the assay: Selectivity index determined by the ratio of IC50 of eNOS to the iNOS. Type of assay: protein assay.
In a further assay the target is T2, Nitric oxide synthase 3 (Homo sapiens, UniProt P29474).
T2 sequence (P29474 whole entry): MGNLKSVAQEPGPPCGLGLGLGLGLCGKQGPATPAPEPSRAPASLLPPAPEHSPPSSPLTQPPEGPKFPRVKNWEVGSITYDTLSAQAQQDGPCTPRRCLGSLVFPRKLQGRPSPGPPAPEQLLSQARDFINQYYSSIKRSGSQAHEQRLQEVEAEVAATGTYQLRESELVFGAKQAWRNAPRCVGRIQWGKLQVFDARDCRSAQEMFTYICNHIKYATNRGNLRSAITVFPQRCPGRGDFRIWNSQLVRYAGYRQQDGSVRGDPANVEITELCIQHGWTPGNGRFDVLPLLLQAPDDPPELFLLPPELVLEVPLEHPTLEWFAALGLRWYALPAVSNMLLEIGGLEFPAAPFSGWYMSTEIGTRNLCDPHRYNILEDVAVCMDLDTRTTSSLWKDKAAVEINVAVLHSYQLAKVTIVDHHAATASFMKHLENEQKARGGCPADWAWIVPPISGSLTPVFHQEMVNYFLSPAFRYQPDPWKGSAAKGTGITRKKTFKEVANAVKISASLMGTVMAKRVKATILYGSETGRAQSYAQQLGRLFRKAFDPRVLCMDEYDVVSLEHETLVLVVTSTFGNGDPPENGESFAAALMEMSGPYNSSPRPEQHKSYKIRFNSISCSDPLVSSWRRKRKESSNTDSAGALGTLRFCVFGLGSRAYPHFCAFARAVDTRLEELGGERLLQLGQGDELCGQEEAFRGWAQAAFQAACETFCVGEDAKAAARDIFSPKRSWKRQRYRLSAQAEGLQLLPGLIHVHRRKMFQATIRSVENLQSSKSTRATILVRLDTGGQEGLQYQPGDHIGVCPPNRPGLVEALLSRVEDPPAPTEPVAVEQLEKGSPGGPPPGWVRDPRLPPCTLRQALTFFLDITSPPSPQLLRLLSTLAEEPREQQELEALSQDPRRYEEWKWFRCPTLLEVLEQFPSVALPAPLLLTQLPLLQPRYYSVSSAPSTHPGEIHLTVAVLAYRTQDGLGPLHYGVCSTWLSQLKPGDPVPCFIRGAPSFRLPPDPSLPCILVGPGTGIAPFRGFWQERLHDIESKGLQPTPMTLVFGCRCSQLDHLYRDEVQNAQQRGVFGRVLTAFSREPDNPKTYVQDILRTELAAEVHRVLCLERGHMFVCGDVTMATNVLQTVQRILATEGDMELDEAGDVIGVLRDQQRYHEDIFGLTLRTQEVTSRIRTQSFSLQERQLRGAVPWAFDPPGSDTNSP
As to the kind of experiment: Compound was evaluated for the Inhibition of endothelial isoform of Endothelial nitric oxide synthase (eNOS)enzyme.

The target of assay [4] is T3, Nitric oxide synthase 1 (Homo sapiens, UniProt P29475). Nature of the assay: Compound was evaluated for the Inhibition of Neuronal nitric oxide synthase.
For assay [5], the target named is T3, Nitric oxide synthase 1. Nature of the assay: Compound was evaluated for the Inhibition of Neuronal nitric oxide synthase at 100 uM concentration.
Assay [6] concerns the target T1, Nitric oxide synthase, inducible. Nature of the assay: Compound was evaluated for the Inhibition of induced isoform of Inducible nitric oxide synthase at 100 uM concentration.
In assay [7] the target is T4, Nitric oxide synthase 3 (Homo sapiens) (UniProt P29474).
T4 sequence (whole entry): T2 sequence (P29474 whole entry)
As to the kind of experiment: Compound was evaluated for the Inhibition of endothelial isoform of Endothelial nitric oxide synthase (eNOS)enzyme at 100 uM concentration.

T1 sequence (P35228 whole entry, canonical isoform): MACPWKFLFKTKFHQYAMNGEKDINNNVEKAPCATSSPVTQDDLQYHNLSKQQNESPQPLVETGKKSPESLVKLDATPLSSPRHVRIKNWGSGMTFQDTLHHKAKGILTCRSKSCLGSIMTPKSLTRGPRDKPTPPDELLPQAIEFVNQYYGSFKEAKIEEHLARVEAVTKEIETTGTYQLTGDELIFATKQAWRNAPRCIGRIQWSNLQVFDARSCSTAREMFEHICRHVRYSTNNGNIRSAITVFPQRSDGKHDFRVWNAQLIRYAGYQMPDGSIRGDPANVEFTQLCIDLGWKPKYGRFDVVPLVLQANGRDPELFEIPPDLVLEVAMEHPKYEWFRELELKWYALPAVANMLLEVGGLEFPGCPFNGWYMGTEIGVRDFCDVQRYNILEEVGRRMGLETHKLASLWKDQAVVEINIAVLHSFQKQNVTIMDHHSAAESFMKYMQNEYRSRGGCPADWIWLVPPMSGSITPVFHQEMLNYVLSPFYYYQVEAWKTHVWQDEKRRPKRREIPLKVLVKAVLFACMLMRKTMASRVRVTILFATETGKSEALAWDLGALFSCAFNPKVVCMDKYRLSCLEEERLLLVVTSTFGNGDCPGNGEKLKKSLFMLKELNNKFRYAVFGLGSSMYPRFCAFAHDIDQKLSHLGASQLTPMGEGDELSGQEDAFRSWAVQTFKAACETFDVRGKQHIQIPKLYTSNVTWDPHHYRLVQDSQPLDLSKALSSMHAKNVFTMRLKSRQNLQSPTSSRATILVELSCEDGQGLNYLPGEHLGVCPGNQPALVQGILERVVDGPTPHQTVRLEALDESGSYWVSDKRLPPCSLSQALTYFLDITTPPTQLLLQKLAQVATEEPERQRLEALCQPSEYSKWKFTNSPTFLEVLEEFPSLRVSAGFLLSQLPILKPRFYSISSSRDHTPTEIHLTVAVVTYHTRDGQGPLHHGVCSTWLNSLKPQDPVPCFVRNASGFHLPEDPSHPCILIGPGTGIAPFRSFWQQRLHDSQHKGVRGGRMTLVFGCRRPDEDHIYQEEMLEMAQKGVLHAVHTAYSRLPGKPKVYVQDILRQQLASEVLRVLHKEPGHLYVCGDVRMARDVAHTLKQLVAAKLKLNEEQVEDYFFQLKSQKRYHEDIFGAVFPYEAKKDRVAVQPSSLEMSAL
Chain of Nitric oxide synthase (inducible and endothelial) (Homo sapiens) (P35228 whole entry, looked up, one chain of several): as the sequence (P35228 whole entry, canonical isoform) above
T3 sequence (P29475 whole entry): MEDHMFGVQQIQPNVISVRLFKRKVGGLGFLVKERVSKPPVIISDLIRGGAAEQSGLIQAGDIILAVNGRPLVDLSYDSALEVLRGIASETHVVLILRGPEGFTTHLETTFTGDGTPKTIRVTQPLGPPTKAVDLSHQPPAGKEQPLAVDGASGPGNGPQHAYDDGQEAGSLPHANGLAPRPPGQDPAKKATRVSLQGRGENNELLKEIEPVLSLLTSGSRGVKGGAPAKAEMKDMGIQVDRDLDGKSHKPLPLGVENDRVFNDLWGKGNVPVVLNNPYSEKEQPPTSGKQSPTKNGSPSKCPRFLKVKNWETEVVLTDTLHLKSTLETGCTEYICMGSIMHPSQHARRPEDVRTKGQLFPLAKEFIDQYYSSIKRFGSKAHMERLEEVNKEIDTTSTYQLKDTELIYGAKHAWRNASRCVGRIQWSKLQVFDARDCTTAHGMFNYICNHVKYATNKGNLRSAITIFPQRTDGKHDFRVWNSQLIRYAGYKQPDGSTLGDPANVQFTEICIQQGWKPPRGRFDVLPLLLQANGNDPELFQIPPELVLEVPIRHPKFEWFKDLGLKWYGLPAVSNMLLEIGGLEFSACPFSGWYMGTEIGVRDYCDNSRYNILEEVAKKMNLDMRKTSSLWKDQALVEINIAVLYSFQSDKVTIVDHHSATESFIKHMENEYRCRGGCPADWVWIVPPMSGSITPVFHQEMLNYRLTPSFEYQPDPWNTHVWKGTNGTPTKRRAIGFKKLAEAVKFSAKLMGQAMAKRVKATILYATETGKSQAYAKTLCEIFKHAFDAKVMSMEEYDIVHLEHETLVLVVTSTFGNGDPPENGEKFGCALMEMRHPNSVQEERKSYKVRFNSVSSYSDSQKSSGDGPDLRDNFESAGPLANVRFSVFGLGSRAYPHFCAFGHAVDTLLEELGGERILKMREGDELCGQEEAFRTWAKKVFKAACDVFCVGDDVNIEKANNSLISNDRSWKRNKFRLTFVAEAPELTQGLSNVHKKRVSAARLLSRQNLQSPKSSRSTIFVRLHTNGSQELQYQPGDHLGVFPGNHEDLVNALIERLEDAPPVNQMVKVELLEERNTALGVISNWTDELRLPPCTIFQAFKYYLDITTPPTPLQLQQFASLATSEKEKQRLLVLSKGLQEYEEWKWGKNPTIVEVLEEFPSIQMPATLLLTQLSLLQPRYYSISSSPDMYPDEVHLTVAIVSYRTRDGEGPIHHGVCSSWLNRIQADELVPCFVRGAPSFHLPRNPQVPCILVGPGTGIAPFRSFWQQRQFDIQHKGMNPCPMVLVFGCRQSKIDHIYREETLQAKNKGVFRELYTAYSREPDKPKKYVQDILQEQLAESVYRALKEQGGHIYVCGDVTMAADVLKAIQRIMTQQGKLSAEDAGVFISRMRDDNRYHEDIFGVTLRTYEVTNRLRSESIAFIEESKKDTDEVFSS
Chain of Nitric oxide sythases; iNOS & nNOS (Homo sapiens) (P29475 whole entry, looked up): as the sequence (P29475 whole entry) above
Chain of Nitric oxide sythases; iNOS & nNOS (Homo sapiens) (P35228 whole entry, looked up): as the sequence (P35228 whole entry, canonical isoform) above

With `CC(=N)NCCCC[C@H](N)[C@@H](O)CO`, the half-inhibitory concentration (IC50) came to 12 µM in assay [1], 8420 µM at Nitric oxide synthase 3 and 150 µM at Nitric oxide synthase 1 [4]. Further, the Selectivity index in assay [2] is 12; in assay [3] it was 700.
Regarding `CC(=N)NCCCC[C@H](N)C(=O)O` [L-NIL], the half-inhibitory concentration (IC50) is 5 µM in assay [1] and 138 µM at Nitric oxide synthase 3. Also, the figures for the Selectivity index in assay [2] and in assay [3] were 12 and 30, respectively.
In the case of `CC(=N)NCCCC[C@H](N)[C@H](O)CO`, the inhibition on Nitric oxide synthase 1 [5] stood at 13%; in assay [6], 49%; in assay [7] it was 0%.

By IC50 is commonly meant the concentration that gives 50% inhibition. High values mean a need for much substance, low ones inhibition by little substance. As a reminder, the inhibition is the share of the control response that was lost under treatment.

The record behind these values is ChEMBL document CHEMBL1131487, “Acetamidine lysine derivative, N-(5(S)-amino-6,7-dihydroxyheptyl)ethanimidamide dihydrochloride: a highly selective inhibitor of human inducible nitric oxide synthase” (J Med Chem, 1998).
